Here are results for six compounds from US20110045083A1, “USE LARCH WOOD FOR TREATING INFLAMMATION” (priority 2007, published 2011).

Structures are written as SMILES. Bounds are passed on as bounds.

This assay deals with 5-LOX mediated LT biosynthesis. Nature of the assay: LT biosynthesis inhibition assay in activated neutrophile granulocytes, LTB4 EIA. Type of assay: cell-based, human. The following applies: for IC50 / inhibition at 50 µM: Homo sapiens; for inhibition at 50 µM: screening concentration 50 μM. As to the method:
1.) LT biosynthesis inhibition assay
The assay was performed as described in [Michael Adams, Olaf Kunert, Ernst Haslinger, Rudolf Bauer: Inhibition of Leukotriene Biosynthesis by Quinolone Alkaloids from the Fruits of Evodia Rutaecarpa; Planta med. 2004 (70): 904-908] with some modifications.
Principle: Activated neutrophile granulocytes with 5-LOX activity are incubated with a defined concentration of test sample and arachidonic acid. After stopping the enzymatic reaction by addition of formic acid and centrifugation to remove cellular fragments, the produced LTB4 is quantified in the supernatant by means of an LTB4 EIA kit.
Isolation of human neutrophile granulocytes: 30 ml of venous human blood from healthy voluntary donors are collected with a Vacutainer™ (BD, Plymouth, UK) system containing a 0.219 M pre-analytical citric acid solution. The blood is immediately transferred to a falcon tube containing 20 ml of sedimentation solution (1% NaCl, 6% dextran T-500) and left to separate for 60 min at 4° C. While most of the dense erythrocytes sink into the dextran layer, the lighter blood fractions remain in the upper layer which is then removed and centrifuged at 1600 rpm (4° C., 10 min) to concentrate the leukocytes. The plasma supernatant is discarded, the pellet is resuspended in 10 ml of a wash buffer (10% CaCl2.2H2O p.a.; 0.1% anhydrous d-glucose; 0.2% MgCl2.6H2O; 0.04% KCl; 1.75% TRIS p.a.; with the pH adjusted to 7.6 with 1N HCl). After centrifugation at 1400 rpm (4° C., 10 min) and removal of the supernatant the resulting pellet is resuspended in 10 ml of a hypotonic lysis buffer (0.17% NH4Cl; 0.2% TRIS; pH 7.2) and gently shaken for 5 min at room temperature to destroy remaining erythrocytes. The suspension is submitted to another centrifugation at 1400 rpm (4° C., 5 min). The pellet is resuspended in 10 ml of wash buffer and then centrifuged at 1400 rpm (4° C., 15 min). The resulting pellet which now mainly contains neutrophile granulocytes is resuspended in 2 ml of TRIS buffer (1.75% TRIS p.a., 0.9% NaCl, pH 7.4), tested for vitality, quantified and then diluted to a cell concentration of 4500 cells/ml with TRIS buffer.
Cell vitality test: 50 μl of cell suspension and 10 μl of trypan blue solution (0.4%) (Sigma Chemical Co. Steinheim, Germany) are mixed on a glass object carrier and examined with a light microscope at 1000 fold magnification. Dead cells appear larger and darker due to absorption of trypan blue. The vitality of the cells must be >95%.
Determination of cell concentration: 10 μl of granulocyte cell suspension are dyed using 990 μl aqueous TURKS solution (Merck) and quantified in a “Neubauer” chamber (Assistent, Germany).
Sample preparation: samples are dissolved in an appropriate amount of ethanol p.a. to be added to the test mixture resulting in screening concentrations of 50 μM for pure compounds and 20 μg/ml for crude. The commercially available 5-LOX inhibitor zileuton (Sequoia Research Products Ltd., UK) is used as a positive control at a concentration of 10 μM representing its IC50 in this test system.
Incubation procedure: The incubation mixture in a 96-well flat bottom microtitre plate (Bibby Sterilin, Staffordshire, UK) consists of 265 μl leukocyte suspension, with 75.5 μM CaCl2, 0.152 μM […] (ETYA) as an inhibitor of the 12-LOX pathway, 0.642 μM Ca ionophore A23187 and 4.43 μM arachidonic acid, the substrate of the 5-LOX pathway, along with 5 μl of each test solution or 5 μl of EtOH p.a. in control wells. After incubation for 10 min at 37° C. in darkness, the reaction is stopped by addition of 20 μl of 10% formic acid. The microtitre plate is centrifuged for 15 min at 1400 rpm to separate free LTB4 from cellular particles before the supernatant is diluted 40 fold in EIA buffer and applied to a competitive LTB4 EIA kit (Assay Designs Inc.).
LTB4 EIA: The plate is incubated for 2 hours at room temperature on an orbital shaker. […]

`CC(C)C1=CC2=C(CC1)C1(C)CCCC(C)(C(=O)O)C1CC2` (stereo not shown) [Palustric acid]: half-maximal inhibition (IC50) required 17.8 µM and the inhibition (in general, how much of the control response was suppressed) at 50 µM came to 66.7 ± 3.1%.

On to `C=CC(C)(O)CCC1C(=C)CC(O)C2C(C)(C)CCCC12C` (stereo not shown) [Larixol], for which the “IC50 LT assay” value was “inactive”, the IC50 (commonly the midpoint of a concentration-inhibition curve) is > 125 µM and 50 µM produced 32.7 ± 5% inhibition.

For `CC(C)c1ccc2c(c1)CCC1C(C)(CO)CCCC21C` (stereo not shown) [Dehydroabietinol], half-maximal inhibition (IC50) was put at 10.9 µM and the inhibition at 50 µM was determined as 94.5 ± 1.4%.

For the compound `CC(C)c1ccc2c(c1)CCC1C(C)(C(=O)O)CCCC21C` (stereo not shown) [Dehydroabietic acid], the IC50 was 44.6 µM and the inhibition at 50 µM is 47.9 ± 8.4%.

`C=C[C@@]1(C)CC[C@H]2C(=CC[C@@H]3[C@]2(C)CCC[C@@]3(C)C(=O)O)C1` [Isopimaric acid] showed an IC50 of 10.2 µM and an inhibition at 50 µM of 98.1 ± 0.5%.

Take `C=CC(C)(O)CCC1C(=C)CC(OC(C)=O)C2C(C)(C)CCCC12C` (stereo not shown) [Larixyl acetate]: the IC50 was determined as 10.4 µM and the inhibition at 50 µM is 98.1 ± 0.1%.
